Experimental data from patent publication US20120035180A1, “PHARMACEUTICAL COMPOSITION FOR TREATING CANCER COMPRISING CHLORIN E6-FOLIC ACID CONJUGATE COMPOUND AND CHITOSAN” (priority 2009, published 2012).

Assays:
HeLa tumor cells = test: Cytotoxicity (antiproliferative assay) in the absence of light exposure; assay type: cell-based; conditions: 24 hr incubation
Procedure: Cytotoxicity was analyzed, considering the intensity of proliferative processes in cells, photosensitizer concentration, and dose of optical power. For each point, 3 flasks with cell monolayer were used.
The monolayer culture of HeLa tumor cells was chosen and used as the cell.
The culture of HeLa tumor cells was grown in nutrient medium 199 or in nutrient medium containing hemohydrolyzate supplemented with 10% fetal bovine serum and […] of kanamycin.
On day 4 after the cell culture was inoculated in the flasks (100,000 cells per 2.0 ml of nutrient medium), the photosensitizer was added at a concentration of 1, 2.5, 5.0, 10.0, 20.0, or 30.0 mg/ml.
Flasks with light-protective cover (dark cytotoxicity) were incubated at 37.5° C. for 1 hour. The cells were washed with Hank's solution 4 times. 2.0 ml of fresh nutrient medium were added, and the cells were irradiated at the temperature of melting ice for 5, 10, 15 or 20 mins by the light flux of a “METALAZ” laser medical device (wavelength: 627.8 nm, 578.2 or 510.6 nm) or “LD 680-2000” (wavelength: 670-690 nm), depending on the wavelength of maximum spectral absorption of the studied photosensitizer, at a dose of 40 J/cm^2. After 20-24 hours, the number of tumor cell was counted in Goriaev's chamber.

[1] = Generation of singlet oxygen (luminescence at 1270 nm); assay type: physicochemical; conditions: air saturated buffer solution, room temperature
Procedure: Based on new Hamamatsu FEU with InP/InGaAsP semi-conductor photocathodes, a highly sensitive laser fluorometer for registration of luminescence signals in the range of 950-1400 nm with nanosecond time resolution was used.
Photoresponse of this process (φΔ) was measured by a relative method through integral intensity of singlet oxygen luminescence at a wavelength of 1270 nm. Excitation was conducted at a wavelength of 531 nm (pulse energy 4 microJ, frequency 1kHz). Tests were made in air saturated buffer solutions at room temperature. […] The φΔ in D2O was considered as 0.7.
To analyze kinetic curves of singlet oxygen luminescence, the following function was used:
wherein A is a coefficient depending on initial concentrations of interacted reagents, and k1 and k2 are constants of luminescence signal increase and extinction, respectively.
In the case when the deactivation rate constant Kτ of the photosensitizer triplet state exceeds the deactivation rate constant KΔ of the molecular oxygen […] state, the constant of increase k1 corresponds to Kτ, and constant of extinction k2 corresponds to KΔ. In the case of Kτ<KΔ, inversion of the kinetics of singlet oxygen luminescence occurs. In this case, k2=Kτ and k1=KΔ. […] Thus, based on kinetic data, the life times of singlet oxygen and triplet state can be calculated.

sarcoma M-1 = test: Growth dynamics and growth inhibition of sarcoma M-1 after PDT; assay type: in vivo, rats
Procedure: The power density was 0.51 W/cm^2, the output power was 0.4 W, and the spot light diameter was 1 cm. […] Monitoring over radiating power was conducted by a universal power meter included in the laser device “ ? 680-2000”.

Hela cells = test: Accumulation in Hela cells; assay type: cell-based; conditions: for concentration in Hela cells: 2×10^−7 M/l, 37° C.
Procedure: The cellular accumulation and the targeted delivery of the photoactive compounds were investigated using Hela cells, which is one of the numerous tumor cell types that overexpress folate receptors.
Cells were cultivated for 3 days in medium 199, and transferred to Hank's solution/medium 199 (9/1). After 3 hours, the cell were collected by trypsin treatment from the substrate and placed in Hank's solution (10^5 κπ/ml). To cell suspensions, chlorin e6 conjugates were added at a concentration of 2×10^−7 M/l, and incubated at 37° C. After 1, 5, 10, 15, and 24 hours, the samples were centrifuged, the pellet was washed with the cooled Hank's solution, and transferred to Hank's solution at a concentration being equal to that in the initial suspension.

## [γ-(6-aminohexyl)folic acid]-chlorin e6 [chlorin e6 conjugate]
HeLa tumor cells
  cell survival rates: about 90%
[1]
  τt (life time in the triplet state) from singlet oxygen luminescence kinetics: 2.0±0.2 microsec.
  τΔ (life time of singlet oxygen) from luminescence kinetics: 3.6±0.2 microsec.
Sarcoma M-1; 2.5 mg/100 g + 100 J/cm^2 for 1 h, day 7
  Growth inhibition rate of sarcoma M-1 of rats in volume to the control: 47.5
Sarcoma M-1; 2.5 mg/100 g + 100 J/cm^2 for 1 h, day 10
  Growth inhibition rate of sarcoma M-1 of rats in volume to the control: 79.4
Sarcoma M-1; 2.5 mg/100 g + 100 J/cm^2 for 1 h, day 12
  Growth inhibition rate of sarcoma M-1 of rats in volume to the control: 87.6
Sarcoma M-1; 2.5 mg/100 g + 100 J/cm^2 for 1 h, day 14
  Growth inhibition rate of sarcoma M-1 of rats in volume to the control: 89.8
Sarcoma M-1; 2.5 mg/100 g + 100 J/cm^2 for 1 h, day 17
  Growth inhibition rate of sarcoma M-1 of rats in volume to the control: 94.8
Sarcoma M-1; 2.5 mg/100 g + 100 J/cm^2 for 1 h, day 19
  Growth inhibition rate of sarcoma M-1 of rats in volume to the control: 94.1
Sarcoma M-1; 2.5 mg/100 g + 100 J/cm^2 for 1 h, day 21
  Growth inhibition rate of sarcoma M-1 of rats in volume to the control: 94.2
Sarcoma M-1; 2.5 mg/100 g + 100 J/cm^2 for 1 h, day 24
  Growth inhibition rate of sarcoma M-1 of rats in volume to the control: 93.6
Sarcoma M-1; 2.5 mg/kg + 100 J/cm^2 for 1 h, day 7 after tumor transplant
  Growth dynamics of sarcoma M-1 (volume): 0.25 ± 0.03 cm^3
Sarcoma M-1; 2.5 mg/kg + 100 J/cm^2 for 1 h, day 10 after tumor transplant
  Growth dynamics of sarcoma M-1 (volume): 0.28 ± 0.03 cm^3
Sarcoma M-1; 2.5 mg/kg + 100 J/cm^2 for 1 h, day 12 after tumor transplant
  Growth dynamics of sarcoma M-1 (volume): 0.34 ± 0.06 cm^3
Sarcoma M-1; 2.5 mg/kg + 100 J/cm^2 for 1 h, day 14 after tumor transplant
  Growth dynamics of sarcoma M-1 (volume): 0.41 ± 0.09 cm^3
Sarcoma M-1; 2.5 mg/kg + 100 J/cm^2 for 1 h, day 17 after tumor transplant
  Growth dynamics of sarcoma M-1 (volume): 0.46 ± 0.11 cm^3
Sarcoma M-1; 2.5 mg/kg + 100 J/cm^2 for 1 h, day 19 after tumor transplant
  Growth dynamics of sarcoma M-1 (volume): 0.69 ± 0.27 cm^3
Sarcoma M-1; 2.5 mg/kg + 100 J/cm^2 for 1 h, day 21 after tumor transplant
  Growth dynamics of sarcoma M-1 (volume): 0.96 ± 0.38 cm^3
Sarcoma M-1; 2.5 mg/kg + 100 J/cm^2 for 1 h, day 24 after tumor transplant
  Growth dynamics of sarcoma M-1 (volume): 1.19 ± 0.48 cm^3
Sarcoma M-1; 5 mg/100 g + 100 J/cm^2 for 1 h, day 7
  Growth inhibition rate of sarcoma M-1 of rats in volume to the control: 36.9
Sarcoma M-1; 5 mg/100 g + 100 J/cm^2 for 1 h, day 10
  Growth inhibition rate of sarcoma M-1 of rats in volume to the control: 77.9
Sarcoma M-1; 5 mg/100 g + 100 J/cm^2 for 1 h, day 12
  Growth inhibition rate of sarcoma M-1 of rats in volume to the control: 89.1
Sarcoma M-1; 5 mg/100 g + 100 J/cm^2 for 1 h, day 14
  Growth inhibition rate of sarcoma M-1 of rats in volume to the control: 92.6
Sarcoma M-1; 5 mg/100 g + 100 J/cm^2 for 1 h, day 17
  Growth inhibition rate of sarcoma M-1 of rats in volume to the control: 95.8
Sarcoma M-1; 5 mg/100 g + 100 J/cm^2 for 1 h, day 19
  Growth inhibition rate of sarcoma M-1 of rats in volume to the control: 95.9
Sarcoma M-1; 5 mg/100 g + 100 J/cm^2 for 1 h, day 21
  Growth inhibition rate of sarcoma M-1 of rats in volume to the control: 96.9
Sarcoma M-1; 5 mg/100 g + 100 J/cm^2 for 1 h, day 24
  Growth inhibition rate of sarcoma M-1 of rats in volume to the control: 97.1
Sarcoma M-1; 5 mg/kg + 100 J/cm^2 for 1 h, day 7 after tumor transplant
  Growth dynamics of sarcoma M-1 (volume): 0.29 ± 0.02 cm^3
Sarcoma M-1; 5 mg/kg + 100 J/cm^2 for 1 h, day 10 after tumor transplant
  Growth dynamics of sarcoma M-1 (volume): 0.300 ± .03 cm^3
Sarcoma M-1; 5 mg/kg + 100 J/cm^2 for 1 h, day 12 after tumor transplant
  Growth dynamics of sarcoma M-1 (volume): 0.30 ± 0.03 cm^3
Sarcoma M-1; 5 mg/kg + 100 J/cm^2 for 1 h, day 14 after tumor transplant
  Growth dynamics of sarcoma M-1 (volume): 0.30 ± 0.03 cm^3
Sarcoma M-1; 5 mg/kg + 100 J/cm^2 for 1 h, day 17 after tumor transplant
  Growth dynamics of sarcoma M-1 (volume): 0.37 ± 0.05 cm^3
Sarcoma M-1; 5 mg/kg + 100 J/cm^2 for 1 h, day 19 after tumor transplant
  Growth dynamics of sarcoma M-1 (volume): 0.47 ± 0.11 cm^3
Sarcoma M-1; 5 mg/kg + 100 J/cm^2 for 1 h, day 21 after tumor transplant
  Growth dynamics of sarcoma M-1 (volume): 0.50 ± 0.14 cm^3
Sarcoma M-1; 5 mg/kg + 100 J/cm^2 for 1 h, day 24 after tumor transplant
  Growth dynamics of sarcoma M-1 (volume): 0.54 ± 0.17 cm^3
Sarcoma M-1; 10 mg/100 g + 100 J/cm^2 for 1 h, day 7
  Growth inhibition rate of sarcoma M-1 of rats in volume to the control: 56.5
Sarcoma M-1; 10 mg/100 g + 100 J/cm^2 for 1 h, day 10
  Growth inhibition rate of sarcoma M-1 of rats in volume to the control: 86.0
Sarcoma M-1; 10 mg/100 g + 100 J/cm^2 for 1 h, day 12
  Growth inhibition rate of sarcoma M-1 of rats in volume to the control: 93.8
Sarcoma M-1; 10 mg/100 g + 100 J/cm^2 for 1 h, day 14
  Growth inhibition rate of sarcoma M-1 of rats in volume to the control: 95.8
Sarcoma M-1; 10 mg/100 g + 100 J/cm^2 for 1 h, day 17
  Growth inhibition rate of sarcoma M-1 of rats in volume to the control: 98.1
Sarcoma M-1; 10 mg/100 g + 100 J/cm^2 for 1 h, day 19
  Growth inhibition rate of sarcoma M-1 of rats in volume to the control: 95.2
Sarcoma M-1; 10 mg/100 g + 100 J/cm^2 for 1 h, day 21
  Growth inhibition rate of sarcoma M-1 of rats in volume to the control: 98.8
Sarcoma M-1; 10 mg/100 g + 100 J/cm^2 for 1 h, day 24
  Growth inhibition rate of sarcoma M-1 of rats in volume to the control: 98.9
Sarcoma M-1; 10 mg/kg + 100 J/cm^2 for 1 h, day 7 after tumor transplant
  Growth dynamics of sarcoma M-1 (volume): 0.20 ± 0.03 cm^3
Sarcoma M-1; 10 mg/kg + 100 J/cm^2 for 1 h, day 10 after tumor transplant
  Growth dynamics of sarcoma M-1 (volume): 0.19 ± 0.04 cm^3
Sarcoma M-1; 10 mg/kg + 100 J/cm^2 for 1 h, day 12 after tumor transplant
  Growth dynamics of sarcoma M-1 (volume): 0.17 ± 0.03 cm^3
Sarcoma M-1; 10 mg/kg + 100 J/cm^2 for 1 h, day 14 after tumor transplant
  Growth dynamics of sarcoma M-1 (volume): 0.17 ± 0.03 cm^3
Sarcoma M-1; 10 mg/kg + 100 J/cm^2 for 1 h, day 17 after tumor transplant
  Growth dynamics of sarcoma M-1 (volume): 0.17 ± 0.03 cm^3
Sarcoma M-1; 10 mg/kg + 100 J/cm^2 for 1 h, day 19 after tumor transplant
  Growth dynamics of sarcoma M-1 (volume): 0.17 ± 0.03 cm^3
Sarcoma M-1; 10 mg/kg + 100 J/cm^2 for 1 h, day 21 after tumor transplant
  Growth dynamics of sarcoma M-1 (volume): 0.20 ± 0.03 cm^3
Sarcoma M-1; 10 mg/kg + 100 J/cm^2 for 1 h, day 24 after tumor transplant
  Growth dynamics of sarcoma M-1 (volume): 0.20 ± 0.03 cm^3
Hela cells; incubation time 1 hours
  concentration in Hela cells: 0.40 relative units/10^4cl.
Hela cells; incubation time 5 hours
  concentration in Hela cells: 1.80 relative units/10^4cl.
Hela cells; incubation time 10 hours
  concentration in Hela cells: 2.50 relative units/10^4cl.
Hela cells; incubation time 15 hours
  concentration in Hela cells: 12.5 relative units/10^4cl.
Hela cells; incubation time 24 hours
  concentration in Hela cells: 15.0 relative units/10^4cl.
Hela cells; Hela cells
  kinetic of binding with cells: increases linearly over 20 hours
